Test results published in US20250179047A1, “5-[7-(3,4-DIHYDRO-1H-ISOQUINOLINE-2-CARBONYL)-1,2,3,4 TETRAHYDROISOQUINOLIN-6-YL]-1H-PYRROLE-3-CARBOXAMIDE DERIVATIVES, PHARMACEUTICAL COMPOSITIONS CONTAINING THEM AND THEIR USES AS PRO-APOPTOTIC AGENTS” (LES LABORATOIRES SERVIER, priority 2022, published 2025).

What was measured:
[1] = molecular target: BCL2 WT (Homo sapiens (Human), UniProt P10415); experiment: TR-FRET competitive binding assay, BCL2 WT; details: Ki determined from IC50, read-out: TR_FRET EKI_Bcl2 WT
Summary of the method: (§1)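 Competitive TR-FRET displacement of fluorescein-PUMA peptide (2 or 20 nM) from 0.5 nM terbium-labelled N-terminal Halo-fusion BCL2 (1-207, wild type or mutant) or BCLXL (2-196), expressed in E. coli. Buffer 50 mM Hepes pH 7.5, 150 mM NaCl, 5% DMSO; 2 h at 23°C. 520/495 nm ratio fitted over 11 points for IC50, converted to Ki.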

[2] = molecular target: BCL2 D103Y (Homo sapiens, UniProt P10415, D103Y); experiment: TR-FRET competitive binding assay, BCL2 D103Y; details: Ki determined from IC50, read-out: TR_FRET EKI_Bcl2 D103Y
Summary of the method: as §1

[3] = test system: KMS-12-PE Bcl-2 G101V; experiment: In vitro cytotoxicity CellTiter-Glo 48 h, KMS-12-PE Bcl-2 G101V; assay type: cell-based; details: for Ratio (G101V/WT): C50 KMS-12-PE Bcl-2 G101V over C50 KMS-12-PE Bcl-2 WT; for IC50: Homo sapiens, KMS-12-PE, 48 h, CellTiter-Glo, C50 = concentration needed to reach 50% of the cellular viability
Summary of the method: (§2)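 CTG luminescence read-out; C50 = concentration reaching 50% cellular viability. Cells: KMS-12-PE expressing Bcl-2 WT or G101V (lentiviral, TagRFP-sorted). 11-pt curve, 48 h, 37 °C/5% CO2.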

[4] = molecular target: BCLXL WT (Homo sapiens (Human), UniProt Q07817); experiment: TR-FRET competitive binding assay, BCLXL WT; details: for Ki: BCLXL WT, Ki determined from IC50, read-out: TR_FRET EKI BclxL; for TR_FRET EKI BCLxL/WT selectivty ratio: ratio Ki BCLxL / Ki BCL2 WT
Sequence of BCLXL WT (Q07817 other isoform, or with tags, fused parts or gaps): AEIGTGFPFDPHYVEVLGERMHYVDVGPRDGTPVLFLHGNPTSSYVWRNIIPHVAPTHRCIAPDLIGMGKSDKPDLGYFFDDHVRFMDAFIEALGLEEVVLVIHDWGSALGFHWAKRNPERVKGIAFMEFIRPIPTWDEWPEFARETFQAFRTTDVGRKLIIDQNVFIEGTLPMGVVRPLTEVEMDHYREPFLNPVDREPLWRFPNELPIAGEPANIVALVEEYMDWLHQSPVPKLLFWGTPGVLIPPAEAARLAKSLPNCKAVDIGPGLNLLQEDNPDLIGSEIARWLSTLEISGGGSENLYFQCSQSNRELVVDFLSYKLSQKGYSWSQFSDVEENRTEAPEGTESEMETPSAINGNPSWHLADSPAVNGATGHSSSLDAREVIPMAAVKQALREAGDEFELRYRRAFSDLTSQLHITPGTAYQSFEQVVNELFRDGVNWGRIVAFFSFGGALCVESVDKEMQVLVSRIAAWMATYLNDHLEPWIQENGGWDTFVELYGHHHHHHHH
Summary of the method: as §1

[5] = molecular target: BCL2 D111A (Homo sapiens, UniProt P10415, D111A); experiment: TR-FRET competitive binding assay, BCL2 D111A; details: Ki determined from IC50, read-out: TR_FRET EKI_Bcl2 D111A
Summary of the method: as §1

[6] = test system: KMS-12-PE Bcl-2 WT; experiment: In vitro cytotoxicity CellTiter-Glo 48 h, KMS-12-PE Bcl-2 WT; assay type: cell-based; details: Homo sapiens, KMS-12-PE, C50 = concentration needed to reach 50% of the cellular viability
Summary of the method: as §2

[7] = molecular target: BCL2 F104I (Homo sapiens, UniProt P10415, F104I); experiment: TR-FRET competitive binding assay, BCL2 F104I; details: Ki determined from IC50, read-out: TR_FRET EKI_Bcl2 F104I
Summary of the method: as §1

[8] = molecular target: BCL2 G101V (Homo sapiens, UniProt P10415, G101V); experiment: TR-FRET competitive binding assay, BCL2 G101V; details: BCL2 G101V; Ki determined from IC50; read-out: TR_FRET EKI_Bcl2 G101V
Summary of the method: as §1

[9] = test system: BCL2 G101V; experiment: TR-FRET competitive binding assay, BCL2 G101V; set-up: species or system human; details: ratio Ki BCL2 G101V / Ki BCL2 WT
Summary of the method: as §1

| SMILES | Ki [1] | Ki [2] | Ratio (G101V/WT) [3] | IC50 [3] | Ki [4] | TR_FRET EKI BCLxL/WT selectivty ratio [4] | Ki [5] | IC50 [6] | Ki [7] | Ki [8] | TR_FRET EKI G101V/WT selectivty ratio [9] |
| --- | --- | --- | --- | --- | --- | --- | --- | --- | --- | --- | --- |
| Cc1c(N(C(=O)c2cc(-c3cc4c(cc3C(=O)N3Cc5ccccc5C[C@H]3CN3CCCC[C@H]3C)CN(C(=O)Cc3ccc(OCCN5CCOCC5)cc3F)CC4)n(C)c2C)c2ccc(O)cc2)cc(C#N)n1C [Example 123, N-(5-cyano-1,2-dimethyl-1H-pyrrol-3-yl)-5-[2-(2-{2-fluoro-4-[2-(morpholin-4-yl)ethoxy]phenyl}acetyl)-7-[(3S)-3-{[(2R)-2-methylpiperidin-1-yl]methyl}-1,2,3,4-tetrahydroisoquinoline-2-carbonyl]-1,2,3,4-tetrahydroisoquinolin-6-yl]-N-(4-hydroxyphenyl)-1,2-dimethyl-1H-pyrrole-3-carboxamide] | 0.07 nM | 0.28 nM | 4.82 | 0.0185 µM | 2.6 nM | 35.1 | 0.13 nM | 0.0038 µM | 0.18 nM | 0.3 nM | 4.2 |
| Cc1c(N(C(=O)c2cc(-c3cc4c(cc3C(=O)N3Cc5ccccc5C[C@H]3CN3CCC[C@@H](C)C3)CN(C(=O)Cc3ccc(OCCN5CCOCC5)cc3F)CC4)n(C)c2C)c2ccc(O)cc2)cc(C#N)n1C [Example 124, N-(5-cyano-1,2-dimethyl-1H-pyrrol-3-yl)-5-[2-(2-{2-fluoro-4-[2-(morpholin-4-yl)ethoxy]phenyl}acetyl)-7-[(3S)-3-{[(3R)-3-methylpiperidin-1-yl]methyl}-1,2,3,4-tetrahydroisoquinoline-2-carbonyl]-1,2,3,4-tetrahydroisoquinolin-6-yl]-N-(4-hydroxyphenyl)-1,2-dimethyl-1H-pyrrole-3-carboxamide] | 0.12 nM | 0.58 nM | 5.62 | 0.0231 µM | 5.8 nM | 48.3 | 0.28 nM | 0.0041 µM | 0.34 nM | 0.7 nM | 5.8 |
| Cc1c(N(C(=O)c2cc(-c3cc4c(cc3C(=O)N3Cc5ccccc5C[C@H]3CN3CCCC[C@@H]3C)CN(C(=O)Cc3ccc(OCCN5CCOCC5)cc3F)CC4)n(C)c2C)c2ccc(O)cc2)cc(C#N)n1C [Example 125, N-(5-cyano-1,2-dimethyl-1H-pyrrol-3-yl)-5-[2-(2-{2-fluoro-4-[2-(morpholin-4-yl)ethoxy]phenyl}acetyl)-7-[(3S)-3-{[(2S)-2-methylpiperidin-1-yl]methyl}-1,2,3,4-tetrahydroisoquinoline-2-carbonyl]-1,2,3,4-tetrahydroisoquinolin-6-yl]-N-(4-hydroxyphenyl)-1,2-dimethyl-1H-pyrrole-3-carboxamide] | 0.07 nM | 0.19 nM | 4.94 | 0.0178 µM | 4.3 nM | 61.4 | 0.13 nM | 0.0036 µM | 0.17 nM | 0.4 nM | 5.4 |
| Cc1c(N(C(=O)c2cc(-c3cc4c(cc3C(=O)N3Cc5ccccc5C[C@H]3CN3CCC5(CC3)CC5)CN(C(=O)Cc3ccc(OCCN5CCOCC5)cc3F)CC4)n(C)c2C)c2ccc(O)cc2)cc(C#N)n1C [Example 126, 5-{7-[(3S)-3-({6-azaspiro[2.5]octan-6-yl}methyl)-1,2,3,4-tetrahydroisoquinoline-2-carbonyl]-2-(2-{2-fluoro-4-[2-(morpholin-4-yl)ethoxy]phenyl}acetyl)-1,2,3,4-tetrahydroisoquinolin-6-yl}-N-(5-cyano-1,2-dimethyl-1H-pyrrol-3-yl)-N-(4-hydroxyphenyl)-1,2-dimethyl-1H-pyrrole-3-carboxamide] | 0.12 nM | 0.37 nM | 6.34 | 0.0303 µM | 7.7 nM | 64.2 | 0.38 nM | 0.0048 µM | 0.49 nM | 0.7 nM | 5.4 |
| Cc1c(N(C(=O)c2cc(-c3cc4c(cc3C(=O)N3Cc5ccccc5C[C@H]3CN3CCCCC3)CN(C(=O)Cc3ccc(OCCN(C)CCF)cc3F)CC4)n(C)c2C)c2ccc(O)cc2)cc(C#N)n1C [Example 134, N-(5-cyano-1,2-dimethyl-1H-pyrrol-3-yl)-5-{2-[2-(2-fluoro-4-{2-[(2-fluoroethyl)(methyl)amino]ethoxy}phenyl)acetyl]-7-[(3S)-3-[(piperidin-1-yl)methyl]-1,2,3,4-tetrahydroisoquinoline-2-carbonyl]-1,2,3,4-tetrahydroisoquinolin-6-yl}-N-(4-hydroxyphenyl)-1,2-dimethyl-1H-pyrrole-3-carboxamide] | 0.06 nM | 0.18 nM | 4.6 | 0.0265 µM | 2.6 nM | 45.6 | 0.17 nM | 0.0058 µM | 0.33 nM | 0.3 nM | 5.8 |
| Cc1c(N(C(=O)c2cc(-c3cc4c(cc3C(=O)N3Cc5ccccc5C[C@H]3CN3CCCCC3)CN(C(=O)Cc3ccc(OCCN5CCOCC5)cc3F)CC4)n3ccccc23)c2ccc(O)cc2)cc(C#N)n1C [Example 136, N-(5-cyano-1,2-dimethyl-pyrrol-3-yl)-3-[2-[2-[2-fluoro-4-(2-morpholinoethoxy)phenyl]acetyl]-7-[(3S)-3-(1-piperidylmethyl)-3,4-dihydro-1H-isoquinoline-2-carbonyl]-3,4-dihydro-1H-isoquinolin-6-yl]-N-(4-hydroxyphenyl)indolizine-1-carboxamide] | 0.13 nM | 0.32 nM | 3.22 | 0.0118 µM | 2.3 nM | 17.7 | 0.35 nM | 0.0037 µM | 0.17 nM | 0.6 nM | 4.2 |
| Cc1c(N(C(=O)c2cc(-c3cc4c(cc3C(=O)N3Cc5ccccc5C[C@H]3CN3CC5(CC5)C3)CN(C(=O)Cc3ccc(OCCN5CCOCC5)cc3F)CC4)n(C)c2C)c2ccc(O)cc2)cc(C#N)n1C [Example 145, 5-{7-[(3S)-3-({5-azaspiro[2.3]hexan-5-yl}methyl)-1,2,3,4-tetrahydroisoquinoline-2-carbonyl]-2-(2-{2-fluoro-4-[2-(morpholin-4-yl)ethoxy]phenyl}acetyl)-1,2,3,4-tetrahydroisoquinolin-6-yl}-N-(5-cyano-1,2-dimethyl-1H-pyrrol-3-yl)-N-(4-hydroxyphenyl)-1,2-dimethyl-1H-pyrrole-3-carboxamide] | 0.03 nM | 0.11 nM | 5.2203 | 0.154 µM | 1.1 nM | 39.3 | 0.07 nM | 0.0295 µM | 0.14 nM | 0.2 nM | 5.4 |
| Cc1c(N(C(=O)c2cc(-c3cc4c(cc3C(=O)N3Cc5ccccc5C[C@H]3CN3CCC(C)(C)C3)CN(C(=O)Cc3ccc(OCCN5CCOCC5)cc3F)CC4)n(C)c2C)c2ccc(O)cc2)cc(C#N)n1C [Example 146, N-(5-cyano-1,2-dimethylpyrrol-3-yl)-5-(7-{[(3S)-3-[(3,3-dimethylpyrrolidin-1-yl)methyl]-3,4-dihydro-1H-isoquinolin-2-yl]carbonyl}-2-(2-{2-fluoro-4-[2-(morpholin-4-yl)ethoxy]phenyl}acetyl)-3,4-dihydro-1H-isoquinolin-6-yl)-N-(4-hydroxyphenyl)-1,2-dimethylpyrrole-3-carboxamide] | 0.04 nM | 0.12 nM | 5.8167 | 0.0349 µM | 3.5 nM | 81.4 | 0.15 nM | 0.006 µM | 0.27 nM | 0.3 nM | 7.2 |
